The source made the active and inactive calls. The calls are words filed in the database; no cut-off is given here.

Here are results for 1 molecule from ChEMBL document CHEMBL4814073, “Ring-opening of five-membered heterocycles conjugated 4-isopropylresorcinol scaffold-based benzamides as HSP90 inhibitors suppressing tumor growth in vitro and in vivo” (Eur J Med Chem, 2021).

Data set [1] can be described thus: Tmax in Sprague-Dawley rat at 2 mg/kg, iv measured after 1 hrs by LC-MS/MS analysis. Format: ADME, organism-based. As to conditions: in vivo.
The target of a further data set is T1, Cytochrome P450 2B6 (Homo sapiens, UniProt P20813).
T1 sequence (P20813 whole entry): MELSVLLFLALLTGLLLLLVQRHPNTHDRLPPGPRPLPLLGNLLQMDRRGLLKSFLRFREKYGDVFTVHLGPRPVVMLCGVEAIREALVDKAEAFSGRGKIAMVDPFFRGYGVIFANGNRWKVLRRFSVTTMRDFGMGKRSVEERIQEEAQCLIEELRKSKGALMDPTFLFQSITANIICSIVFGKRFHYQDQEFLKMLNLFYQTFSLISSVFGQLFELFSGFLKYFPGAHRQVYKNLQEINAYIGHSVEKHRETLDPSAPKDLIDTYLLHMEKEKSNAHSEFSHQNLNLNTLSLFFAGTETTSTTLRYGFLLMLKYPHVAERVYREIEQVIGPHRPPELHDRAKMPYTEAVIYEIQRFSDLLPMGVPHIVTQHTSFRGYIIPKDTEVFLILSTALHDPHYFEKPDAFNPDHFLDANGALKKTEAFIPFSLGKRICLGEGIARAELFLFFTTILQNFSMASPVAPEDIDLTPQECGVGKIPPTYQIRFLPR
The data set can be described thus: Inhibition of CYP2B6 in human liver microsomes using bupropion as substrate by LC-MS/MS analysis. In kind it is ADME.

In data set [2] the test system is A549. Nature of the data set: Antitumor activity against human A549 cells xenografted in BALB/c mouse assessed as reduction in tumor growth inhibition at 50 mg/kg, po treated daily relative to control. Particulars: read-out: TGI. Background: In xenograft studies the graft and the host belong to different species.
The target in another data set is Cytochrome P450 2D6 (Homo sapiens, UniProt P10635). The data set can be described thus: Inhibition of CYP2D6 in human liver microsomes using dextromethorphan as substrate by LC-MS/MS analysis. Format: ADME. In general terms: Liver microsomes are vesicles of endoplasmic reticulum, rich in cytochrome P450 enzymes.
Data set [3] relates to A549. Nature of the data set: Inhibition of MAPK signaling pathway in human A549 cells at 3 uM incubated for 24 hrs by immunoblot analysis. In kind it is cell-based. On the technique in general: A western blot detects proteins with antibodies after separation by electrophoresis.
Data set [4] relates to A549. The data set can be described thus: Induction of apoptosis in human A549 cells assessed as increase in cleaved caspase 3 protein expression at 0.3 to 3 uM measured after 18 hrs by western blot analysis. As to conditions: dose 0.3-3 µM. In kind it is functional, cell-based.
Data set [5] deals with A549. Nature of the data set: Induction of EGFR degradation in human A549 cells assessed as reduction in eGFR expression at 3 uM by immunoblot analysis. Format: functional, cell-based. Particulars: time hrs <=24, TDE = time-dependent effect.
Data set [6] is described as follows: Hepatic clearance in Beagle dog by LC-MS/MS analysis. Format: ADME, tissue-based, Canis lupus familiaris, Hepatocyte. As to conditions: hepatocytes.
Data set [7] is described as follows: Hepatic clearance in CD1 mouse by LC-MS/MS analysis. In kind it is ADME, tissue-based, Hepatocyte. Particulars: hepatocytes.
Data set [8] has as its system A549. Nature of the data set: Induction of EGFR degradation in human A549 cells assessed as reduction in eGFR expression measured after 24 hrs by immunoblot analysis. Particulars: dose microM <=3, time 24.0 hrs. In kind it is functional, cell-based.
Data set [9] is described as follows: Metabolic stability in human hepatocytes assessed as Intrinsic clearance by LC-MS/MS analysis. In kind it is ADME, cell-based, Hepatocyte.
The nature of data set [10]: Cmax in Sprague-Dawley rat at 2 mg/kg, iv measured after 1 hrs by LC-MS/MS analysis. Format: ADME, organism-based. Further details: route intravenous, time 1 hrs, dose 2 mg/kg. Particulars: in vivo.
Data set [11] deals with A549. The data set can be described thus: Induction of apoptosis in human A549 cells assessed as increase in cleaved caspase 9 protein expression at 0.3 to 3 uM measured after 18 hrs by western blot analysis. In kind it is functional, cell-based. As to conditions: dose 0.3-3 µM.

Chain of Cytochrome P450 2D6 (P10635 whole entry): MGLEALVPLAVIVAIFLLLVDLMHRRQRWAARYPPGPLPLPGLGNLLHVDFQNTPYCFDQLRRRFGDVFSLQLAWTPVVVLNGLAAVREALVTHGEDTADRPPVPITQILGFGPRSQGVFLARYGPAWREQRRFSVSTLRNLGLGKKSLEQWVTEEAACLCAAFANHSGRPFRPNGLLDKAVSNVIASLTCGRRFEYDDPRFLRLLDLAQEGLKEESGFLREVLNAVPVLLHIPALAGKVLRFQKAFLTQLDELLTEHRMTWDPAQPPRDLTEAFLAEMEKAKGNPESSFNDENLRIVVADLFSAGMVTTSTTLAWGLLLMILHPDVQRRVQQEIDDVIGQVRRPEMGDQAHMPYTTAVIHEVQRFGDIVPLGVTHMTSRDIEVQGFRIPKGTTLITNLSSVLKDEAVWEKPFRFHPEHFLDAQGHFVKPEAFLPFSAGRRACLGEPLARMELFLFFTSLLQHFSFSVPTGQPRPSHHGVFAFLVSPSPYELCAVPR

What is called Tmax is the time at which the peak concentration occurs. As usually defined, the IC50 is the concentration needed to halve the response being measured. Read a high IC50 as a need for much substance. The Cmax is the peak of the concentration-time curve. For `CCN(C(=O)c1cc(C(C)C)c(O)cc1O)c1cccnc1`, in data set [1], the Tmax was 1.8 min. For the same molecule, the IC50 against Cytochrome P450 2B6 was 37.2 µM; against Cytochrome P450 2D6 it was > 50 µM. The inhibition in vivo at 50 mg/kg in the data set on A549 [2] came out at 46.9%. Further, the inhibition entry in the data set with A549 [3] is “Dose-Dependent Effect”. Also, the outcome in the data set with A549 [4] and with A549 [11] was Active. In addition, the Activity result in the data set with A549 [5] is “Tde”; in the data set on A549 [8], “Dose-Dependent Effect”. Further, the CLhep predicted was 25 mL/min/kg in [6] and 87.5 mL/min/kg in [7]. For the same molecule, the CLint in data set [9] was 55.3 mL/min/kg. Also, the Cmax in data set [10] is 1580 ng/mL.
